Reference: US20050027003A1, “Methods of therapeutic treatment using retinoids with reduced side effects” (Allergan, Inc., priority 2003, published 2005)

Assays:
[1] = system: patients with psoriasis; assay: Example 2: Phase 3 studies of oral tazarotene for psoriasis, adverse events (Table 1); assay type: in vivo, human; conditions: Taz 4.5 mg
Method: A series of Phase 3 studies are conducted on orally administered tazarotene for the treatment of psoriasis. Adverse events (side effects) are monitored. In addition, published data for acitretin's side effects are also considered.

[2] = system: AP1; assay: AP1 antagonism
[3] = system: patients; assay: Example 3: two placebo-controlled 24-week safety studies plus dose-response evaluations of oral tazarotene; assay type: in vivo, human; conditions: for incidence of patients discontinuing due to adverse effects: placebo 3%
Method: Two multicenter, double-blind, randomized, placebo-controlled 24-week studies of identical design are conducted to evaluate the safety of oral tazarotene. In addition, 16- to 24-week dose-response evaluations are performed.
In the two safety trials, the incidence of adverse side effects with a 4.5 mg dose administered orally once daily is compared to the incidence of the same side effects with a placebo. […] The majority of these were mild in severity and typical of adverse effects associated with oral retinoids.

[4] = system: patients with acne; assay: Example 6: studies of oral tazarotene for acne, adverse events (Table 2); assay type: in vivo, human; conditions: combined data from Studies 1 and 2 (N = 223)
Method: Studies are conducted on orally administered tazarotene for the treatment of acne. Adverse events (side effects) are monitored.

[5] = system: patients having nodulocystic acne; assay: Example 5: two placebo-controlled dose-ranging safety studies in nodulocystic acne; assay type: in vivo, human; conditions: for depression, patients: placebo 2%; for emotional lability, patients: placebo 4%
Method: Two placebo-controlled dose-ranging studies are conducted to evaluate the safety of oral tazarotene in patients having nodulocystic acne. In the first study, patients receive orally administered tazarotene at daily doses of 0.4 mg to 2.8 mg in 96 (71+25) patients (12 weeks treatment plus 12 weeks post-treatment). In the second study, daily doses of 0.75 mg to 6 mg tazarotene are administered to 181 patients (24 weeks treatment plus 12 weeks post-treatment).

[6] = Study 3, treated with Tazarotene for 3 months (N = 220)
[7] = Study 3, treated with Tazarotene for 6 months (N = 92)
[8] = combined data from Studies 1 and 2 (N = 348)

CCOC(=O)c1ccc(C#Cc2ccc3c(c2)C(C)(C)CCS3)nc1 [tazarotene]
Adverse event: Alopecia [1, 6]: 1 (0.5) number (%) of patients
Adverse event: Arthralgia [1, 6]: 28 (12.7) number (%) of patients
Adverse event: Atrophy of skin [1, 6]: 0 (0.0) number (%) of patients
Adverse event: Back pain [1, 6]: 7 (3.2) number (%) of patients
Adverse event: Cheilitis [1, 6]: 149 (67.7) number (%) of patients
Adverse event: Dry Skin [1, 6]: 47 (21.4) number (%) of patients
Adverse event: Dry mouth/Oral dryness [1, 6]: 11 (5.0) number (%) of patients
Adverse event: Epistaxis [1, 6]: 1 (0.5) number (%) of patients
Adverse event: Erythematous rash/Erythema [1, 6]: 0 (0.0) number (%) of patients
Adverse event: Hyperesthesia [1, 6]: 0 (0.0) number (%) of patients
Adverse event: Nail Disorder [1, 6]: 1 (0.5) number (%) of patients
Adverse event: Paresthesia [1, 6]: 3 (1.4) number (%) of patients
Adverse event: Paronychia/Nail disorder [1, 6]: 1 (0.5) number (%) of patients
Adverse event: Pruritus [1, 6]: 11 (5.0) number (%) of patients
Adverse event: Rhinitis [1, 6]: 0 (0.0) number (%) of patients
Adverse event: Rigors/Chills [1, 6]: 1 (0.5) number (%) of patients
Adverse event: Skin peeling/Desquamation [1, 6]: 3 (1.4) number (%) of patients
Adverse event: Sticky skin/Skin disorder [1, 6]: 0 (0.0) number (%) of patients
Adverse event: Xerophthalmia/Eye disorder [1, 6]: 3 (1.4) number (%) of patients
Adverse event: Alopecia [1, 7]: 5 (5.4) number (%) of patients
Adverse event: Arthralgia [1, 7]: 30 (32.6) number (%) of patients
Adverse event: Atrophy of skin [1, 7]: 0 (0.0) number (%) of patients
Adverse event: Back pain [1, 7]: 10 (10.9) number (%) of patients
Adverse event: Cheilitis [1, 7]: 65 (70.7) number (%) of patients
Adverse event: Dry Skin [1, 7]: 24 (26.1) number (%) of patients
Adverse event: Dry mouth/Oral dryness [1, 7]: 2 (2.2) number (%) of patients
Adverse event: Epistaxis [1, 7]: 0 (0.0) number (%) of patients
Adverse event: Erythematous rash/Erythema [1, 7]: 0 (0.0) number (%) of patients
Adverse event: Hyperesthesia [1, 7]: 0 (0.0) number (%) of patients
Adverse event: Nail Disorder [1, 7]: 1 (1.1) number (%) of patients
Adverse event: Paresthesia [1, 7]: 1 (1.1) number (%) of patients
Adverse event: Paronychia/Nail disorder [1, 7]: 1 (1.1) number (%) of patients
Adverse event: Pruritus [1, 7]: 3 (3.3) number (%) of patients
Adverse event: Rhinitis [1, 7]: 0 (0.0) number (%) of patients
Adverse event: Rigors/Chills [1, 7]: 1 (1.1) number (%) of patients
Adverse event: Skin peeling/Desquamation [1, 7]: 1 (1.1) number (%) of patients
Adverse event: Sticky skin/Skin disorder [1, 7]: 0 (0.0) number (%) of patients
Adverse event: Xerophthalmia/Eye disorder [1, 7]: 1 (1.1) number (%) of patients
Adverse event: Alopecia [1, 8]: 1 (0.3) number (%) of patients
Adverse event: Arthralgia [1, 8]: 60 (17.2) number (%) of patients
Adverse event: Atrophy of skin [1, 8]: 0 (0.0) number (%) of patients
Adverse event: Back pain [1, 8]: 16 (4.6) number (%) of patients
Adverse event: Cheilitis [1, 8]: 228 (65.5) number (%) of patients
Adverse event: Dry Skin [1, 8]: 82 (23.6) number (%) of patients
Adverse event: Dry mouth/Oral dryness [1, 8]: 11 (3.2) number (%) of patients
Adverse event: Epistaxis [1, 8]: 2 (0.6) number (%) of patients
Adverse event: Erythematous rash/Erythema [1, 8]: 2 (0.6) number (%) of patients
Adverse event: Hyperesthesia [1, 8]: 0 (0.0) number (%) of patients
Adverse event: Nail Disorder [1, 8]: 2 (0.6) number (%) of patients
Adverse event: Paresthesia [1, 8]: 7 (2.0) number (%) of patients
Adverse event: Paronychia/Nail disorder [1, 8]: 2 (0.6) number (%) of patients
Adverse event: Pruritus [1, 8]: 21 (6.0) number (%) of patients
Adverse event: Rhinitis [1, 8]: 8 (2.3) number (%) of patients
Adverse event: Rigors/Chills [1, 8]: 9 (2.6) number (%) of patients
Adverse event: Skin peeling/Desquamation [1, 8]: 3 (0.9) number (%) of patients
Adverse event: Sticky skin/Skin disorder [1, 8]: 1 (0.3) number (%) of patients
Adverse event: Xerophthalmia/Eye disorder [1, 8]: 8 (2.3) number (%) of patients
AP1 antagonism [2]: potent
incidence of patients discontinuing due to adverse effects ([3]; 4.5 mg (n=348)): 3%
incidence of hypertriglyceridemia, hypercholesterolemia, abnormal liver function tests, increased alanine aminotransferase, increased aspartate aminotransferase, desquamation, eye dryness, alopecia ([3]; 4.5 mg orally once daily vs placebo): essentially the same incidence
incidence of patients discontinuing due to adverse effects ([3]; 6.3 mg (n=16)): 13%
incidence of patients discontinuing due to adverse effects ([3]; 0.4 to 1.1 mg (n=105)): approximately 2%
incidence of patients discontinuing due to adverse effects ([3]; 2.1 to 2.8 mg (n=21)): 10%
incidence of patients discontinuing due to adverse effects ([3]; (n=14)): 0%
Adverse event: Cheilitis [4]: 134 (60.1) number (%) of patients
Adverse event: Conjunctivitis [4]: 0 (0.0) number (%) of patients
Adverse event: Desquamation central face/Desquamation [4]: 1 (0.4) number (%) of patients
Adverse event: Dry Skin [4]: 79 (35.4) number (%) of patients
Adverse event: Dry nose [4]: 7 (3.1) number (%) of patients
Adverse event: Epistaxis [4]: 6 (2.7) number (%) of patients
Adverse event: Fingertip peeling/Desquamation [4]: 1 (0.4) number (%) of patients
Adverse event: Headache [4]: 26 (11.7) number (%) of patients
Adverse event: Irritation of eyes [4]: 0 (0.0) number (%) of patients
Adverse event: Joint pain/Arthralgia [4]: 18 (8.1) number (%) of patients
Adverse event: Peeling/Desquamation [4]: 1 (0.4) number (%) of patients
Adverse event: Pruritus [4]: 10 (4.5) number (%) of patients
Adverse event: Rash-dermatitis/Rash [4]: 7 (3.1) number (%) of patients
Adverse event: Red Scaly face/Desquamation [4]: 1 (0.4) number (%) of patients
Adverse event: Skin fragility/Skin disorder [4]: 1 (0.4) number (%) of patients
changes in urinalysis, chemistry, or hematology measures (incl. liver function tests, triglycerides, total cholesterol, HDL cholesterol) ([5]; 0.4 mg to 6 mg daily): no consistent dose-related clinically significant changes
ligament calcification, osteophyte formation, changes in serum bone alkaline phosphatase, serum amino terminal telopeptides, bone density ([5]; 0.4 mg to 6 mg daily): not associated with any clinically significant
depression, patients ([5]; 3 mg group (2 mild, 1 severe)): 8%
emotional lability, patients ([5]; 3 mg group): 3%
depression, patients ([5]; 6 mg group): none
emotional lability, patients ([5]; 6 mg group): 14%
dry skin, severe ([5]; all groups): No patient
